Laboratory results as given in US10323038B2, “Pyrazole compounds and methods of making and using same” (ABIDE THERAPEUTICS, INC., priority 2015, dated 2019).

What was measured:
MAGL = MAGL (Mus musculus (Mouse), UniProt O35678); test: In vitro competitive activity-based protein profiling, MAGL (mouse); assay type: biochemical; conditions: for inhibition at 1 µM: read-out: MAGL % inh. 1 μM (mouse)
Method in brief: (§1)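 Residual MAGL and FAAH activity quantified from fluorescent gel bands after SDS-PAGE. Before that, FP-Rh or HT-01 probe (50 μM stock) labelled for 30 min at 37 °C, following 30 min inhibitor preincubation. Mouse assays used brain membrane fraction or cell lysates, human used prefrontal cortex or cell membranes, all at 1.0 mg/mL protein.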

FAAH = FAAH (Mus musculus (Mouse), UniProt O08914); test: In vitro competitive activity-based protein profiling, FAAH (mouse); assay type: biochemical; conditions: for inhibition at 1 µM: read-out: FAAH % inh. 1 μM (mouse)
Method in brief: as §1

Chain of MAGL (O35678 whole entry): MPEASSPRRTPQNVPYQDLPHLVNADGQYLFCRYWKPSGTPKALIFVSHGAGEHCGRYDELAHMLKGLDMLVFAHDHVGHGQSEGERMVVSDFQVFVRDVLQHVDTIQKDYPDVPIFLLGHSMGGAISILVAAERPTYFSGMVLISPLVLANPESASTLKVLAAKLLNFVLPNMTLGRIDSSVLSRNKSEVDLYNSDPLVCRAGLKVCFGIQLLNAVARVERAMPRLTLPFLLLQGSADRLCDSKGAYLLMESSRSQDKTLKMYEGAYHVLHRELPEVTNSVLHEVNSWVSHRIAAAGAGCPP
Chain of FAAH (O08914 whole entry): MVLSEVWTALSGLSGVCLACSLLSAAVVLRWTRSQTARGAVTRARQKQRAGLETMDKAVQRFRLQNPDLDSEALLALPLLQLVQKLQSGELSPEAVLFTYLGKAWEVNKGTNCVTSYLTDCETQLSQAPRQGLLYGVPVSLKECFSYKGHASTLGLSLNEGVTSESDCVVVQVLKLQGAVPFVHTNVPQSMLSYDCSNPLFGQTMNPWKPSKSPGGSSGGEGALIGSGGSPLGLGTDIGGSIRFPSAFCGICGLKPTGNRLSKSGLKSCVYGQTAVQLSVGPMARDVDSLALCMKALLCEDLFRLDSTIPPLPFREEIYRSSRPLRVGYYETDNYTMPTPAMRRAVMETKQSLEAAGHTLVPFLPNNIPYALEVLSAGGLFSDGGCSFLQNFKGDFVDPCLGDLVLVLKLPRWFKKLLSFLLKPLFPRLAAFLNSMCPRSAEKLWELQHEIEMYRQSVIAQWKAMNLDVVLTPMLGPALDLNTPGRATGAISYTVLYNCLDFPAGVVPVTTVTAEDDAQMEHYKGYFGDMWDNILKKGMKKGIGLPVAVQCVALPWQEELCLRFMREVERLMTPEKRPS

Compound | IC50 (MAGL) | inhibition at 1 µM (MAGL) | IC50 (FAAH) | inhibition at 1 µM (FAAH)
CS(=O)(=O)Nc1cnn(C(=O)N2CCC3(CC2)CN(Cc2ccc(N4CCCC4)cc2C(F)(F)F)C3)c1 [Example 281, N-(1-(2-(4-(pyrrolidin-1-yl)-2-(trifluoromethyl)benzyl)-2,7-diazaspiro[3.5]nonane-7-carbonyl)-1H-pyrazol-4-yl)methanesulfonamide] |  | ≥ 75% |  | ≥ 75%
CC(=O)N(C)c1cnn(C(=O)N2CCC3(CC2)CN(Cc2ccc(N4CCOCC4)cc2)C3)c1 [Example 27, N-methyl-N-(1-(2-(4-morpholinobenzyl)-2,7-diazaspiro[3.5]nonane-7-carbonyl)-1H-pyrazol-4-yl)acetamide] |  | ≥ 75% |  | 0 to 25%
CC(=O)N(C)c1cnn(C(=O)N2CCC3(CC2)CN(Cc2cccc(N4CCCC4)c2)C3)c1 [Example 30, N-methyl-N-(1-(2-(3-(pyrrolidin-1-yl)benzyl)-2,7-diazaspiro[3.5]nonane-7-carbonyl)-1H-pyrazol-4-yl)acetamide] |  | ≥ 75% |  | ≥ 75%
CS(=O)(=O)Nc1cnn(C(=O)N2CCN(Cc3cccc(Oc4ccc(Cl)cc4)c3)CC2)c1 [Example 296, N-(1-(4-(3-(4-chlorophenoxy)benzyl)piperazine-1-carbonyl)-1H-pyrazol-4-yl)methanesulfonamide] |  | ≥ 75% |  | ≥ 75%
CC(=O)N(C)c1cnn(C(=O)N2C[C@H]3C[C@@H](N(C)Cc4ccc(N5C6CCC5COC6)cc4C(F)(F)F)C[C@H]3C2)c1 [Example 149, N-(1-(cis-5-((4-(3-oxa-8-azabicyclo[3.2.1]octan-8-yl)-2-(trifluoromethyl)benzyl)(methyl)amino)octahydrocyclopenta[c]pyrrole-2-carbonyl)-1H-pyrazol-4-yl)-N-methylacetamide] |  | ≥ 75% |  | ≥ 75%
CS(=O)(=O)Nc1cnn(C(=O)N2CCN(Cc3ccc(-c4ccncn4)cc3C(F)(F)F)CC2)c1 [Example 309, N-(1-(4-(4-(pyrimidin-4-yl)-2-(trifluoromethyl)benzyl)piperazine-1-carbonyl)-1H-pyrazol-4-yl)methanesulfonamide] |  | 25 to 50% |  | ≥ 75%
CC(=O)N(C)c1cnn(C(=O)N2C[C@H]3C[C@H](N(C)Cc4ccc(N5C6CCC5COC6)c(C(F)(F)F)c4)C[C@H]3C2)c1 [Example 156, N-(1-(trans-5-((4-(3-oxa-8-azabicyclo[3.2.1]octan-8-yl)-3-(trifluoromethyl)benzyl)(methyl)amino)octahydrocyclopenta[c]pyrrole-2-carbonyl)-1H-pyrazol-4-yl)-N-methylacetamide] | 0.1 to 1 µM | ≥ 75% | ≤ 0.1 µM | ≥ 75%
CC(=O)N(C)c1cnn(C(=O)N2CCC3(CCN(Cc4ccc(-c5ncccn5)cc4Cl)C3)C2)c1 (stereo not shown) [Example 268, N-(1-(7-(2-chloro-4-(pyrimidin-2-yl)benzyl)-2,7-diazaspiro[4.4]nonane-2-carbonyl)-1H-pyrazol-4-yl)-N-methylacetamide] |  | ≥ 75% |  | ≥ 75%
CS(=O)(=O)Nc1cnn(C(=O)N2CC3CN(Cc4ccc(N5CCCC5)cc4C(F)(F)F)CC3C2)c1 (stereo not shown) [Example 279, N-(1-(5-(4-(pyrrolidin-1-yl)-2-(trifluoromethyl)benzyl)octahydropyrrolo [3,4-c]pyrrole-2-carbonyl)-1H-pyrazol-4-yl)methanesulfonamide] | ≤ 0.1 µM | ≥ 75% | 0.1 to 1 µM | ≥ 75%
Cc1noc(-c2ccc(CN3CCN(C(=O)n4cc(NS(C)(=O)=O)cn4)CC3)c(C(F)(F)F)c2)n1 [Example 307, N-(1-(4-(4-(3-methyl-1,2,4-oxadiazol-5-yl)-2-(trifluoromethyl)benzyl)piperazine-1-carbonyl)-1H-pyrazol-4-yl)methanesulfonamide] |  | 25 to 50% |  | ≥ 75%

The remaining lines, values ahead:

IC50 (MAGL) | inhibition at 1 µM (MAGL) | IC50 (FAAH) | inhibition at 1 µM (FAAH) | Compound
0.1 to 1 µM | ≥ 75% | ≤ 0.1 µM | ≥ 75% | CC(=O)N(C)c1cnn(C(=O)N2CC3CN(Cc4ccccc4C)CC3C2)c1 (stereo not shown) [Example 94, N-methyl-N-(1-(5-(2-methylbenzyl)octahydropyrrolo[3,4-c]pyrrole-2-carbonyl)-1H-pyrazol-4-yl)acetamide]
 | ≥ 75% |  | ≥ 75% | CC(=O)N(C)c1cnn(C(=O)N2CC3CN(Cc4ccc(OC(C)C)cc4Cl)CC3C2)c1 (stereo not shown) [Example 253, N-(1-(5-(2-chloro-4-isopropoxybenzyl)octahydropyrrolo[3,4-c]pyrrole-2-carbonyl)-1H-pyrazol-4-yl)-N-methylacetamide]
0.1 to 1 µM | ≥ 75% | ≤ 0.1 µM | ≥ 75% | CC(=O)N(C)c1cnn(C(=O)N2CCC3(CCN(Cc4cccc(C(F)(F)F)c4)C3)C2)c1 (stereo not shown) [Example 64, N-methyl-N-(1-(7-(3-(trifluoromethyl)benzyl)-2,7-diazaspiro[4.4]nonane-2-carbonyl)-1H-pyrazol-4-yl)acetamide]
≤ 0.1 µM | ≥ 75% | ≤ 0.1 µM | ≥ 75% | CC(=O)N(C)c1cnn(C(=O)N2CCN(Cc3cccc(C(F)(F)F)c3)CC2)c1 [Example 209, N-methyl-N-(1-(4-(3-(trifluoromethyl)benzyl)piperazine-1-carbonyl)-1H-pyrazol-4-yl)acetamide]
≤ 0.1 µM | ≥ 75% | ≤ 0.1 µM | ≥ 75% | CC(=O)N(C)c1cnn(C(=O)N2CC3CN(Cc4ccc(C(F)(F)F)c(N5CCCC5)c4)CC3C2)c1 (stereo not shown) [Example 130, N-methyl-N-(1-(5-(3-(pyrrolidin-1-yl)-4-(trifluoromethyl)benzyl)octahydropyrrolo[3,4-c]pyrrole-2-carbonyl)-1H-pyrazol-4-yl)acetamide]
≤ 0.1 µM | ≥ 75% | ≤ 0.1 µM | ≥ 75% | CC(=O)N(C)c1cnn(C(=O)N2CCC3(CC2)CN(Cc2ccccc2C(F)(F)F)C3)c1 [Example 44, N-methyl-N-(1-(2-(2-(trifluoromethyl)benzyl)-2,7-diazaspiro[3.5]nonane-7-carbonyl)-1H-pyrazol-4-yl)acetamide]
≤ 0.1 µM | ≥ 75% | ≤ 0.1 µM | ≥ 75% | CC(=O)N(C)c1cnn(C(=O)N2CC3CN(Cc4cccc(Oc5ccc(Cl)cc5)c4)CC3C2)c1 (stereo not shown) [Example 237, N-(1-(5-(3-(4-chlorophenoxy)benzyl)octahydropyrrolo [3,4-c]pyrrole-2-carbonyl)-1H-pyrazol-4-yl)-N-methylacetamide]
≤ 0.1 µM | ≥ 75% | 0.1 to 1 µM | ≥ 75% | CC(=O)N(C)c1cnn(C(=O)N2CCC3(CC2)CN(Cc2ccccc2Cl)C3)c1 [Example 40, N-(1-(2-(2-chlorobenzyl)-2,7-diazaspiro[3.5]nonane-7-carbonyl)-1H-pyrazol-4-yl)-N-methylacetamide]
 | ≥ 75% |  | ≥ 75% | CC(=O)N(C)c1cnn(C(=O)N2C[C@H]3C[C@@H](N(C)Cc4cc(C(F)(F)F)ccc4Cl)C[C@H]3C2)c1 [Example 163, N-(1-(cis-5-((2-chloro-5-(trifluoromethyl)benzyl)(methyl)amino)octahydrocyclopenta[c]pyrrole-2-carbonyl)-1H-pyrazol-4-yl)-N-methylacetamide]
≤ 0.1 µM | ≥ 75% | ≤ 0.1 µM | ≥ 75% | CC(=O)N(C)c1cnn(C(=O)N2CC3CN(Cc4ccc(F)c(N5CCCC5)c4)CC3C2)c1 (stereo not shown) [Example 100, N-(1-(5-(4-fluoro-3-(pyrrolidin-1-yl)benzyl)octahydropyrrolo[3,4-c]pyrrole-2-carbonyl)-1H-pyrazol-4-yl)-N-methylacetamide]
 | 0 to 25% |  | ≥ 75% | CC(=O)N(C)c1cnn(C(=O)N2CC3CN(Cc4ccc(OCC(=O)N5CCCC5)cc4C(F)(F)F)CC3C2)c1 (stereo not shown) [Example 256, N-methyl-N-(1-(5-(4-(2-oxo-2-(pyrrolidin-1-yl)ethoxy)-2-(trifluoromethyl)benzyl)octahydropyrrolo [3,4-c]pyrrole-2-carbonyl)-1H-pyrazol-4-yl)acetamide]
0.1 to 1 µM | ≥ 75% | 0.1 to 1 µM | ≥ 75% | CC(=O)N(C)c1cnn(C(=O)N2C[C@H]3C[C@H](NCc4cccc(Cl)c4)C[C@H]3C2)c1 [Example 137, N-(1-(trans-5-(3-chlorobenzylamino)octahydrocyclopenta[c]pyrrole-2-carbonyl)-1H-pyrazol-4-yl)-N-methylacetamide]
 | ≥ 75% |  | ≥ 75% | CC(=O)N(C)c1cnn(C(=O)N2C[C@H]3C[C@@H](N(C)Cc4ccc(N5CCCC5)c(C(F)(F)F)c4)C[C@H]3C2)c1 [Example 153, N-methyl-N-(1-(cis-5-(methyl(4-(pyrrolidin-1-yl)-3-(trifluoromethyl)benzyl)amino)octahydrocyclopenta[c]pyrrole-2-carbonyl)-1H-pyrazol-4-yl)acetamide]
0.1 to 1 µM | 50 to 75% | 0.1 to 1 µM | ≥ 75% | CC(=O)N(C)c1cnn(C(=O)N2CC3CN(Cc4cccc(F)c4)CC3C2)c1 (stereo not shown) [Example 180, N-(1-(5-(3-fluorobenzyl)octahydropyrrolo[3,4-c]pyrrole-2-carbonyl)-1H-pyrazol-4-yl)-N-methylacetamide]
≤ 0.1 µM | ≥ 75% | ≤ 0.1 µM | ≥ 75% | CC(=O)N(C)c1cnn(C(=O)N2CC3CN(Cc4cccc(Oc5ccccc5)c4)CC3C2)c1 (stereo not shown) [Example 234, N-methyl-N-(1-(5-(3-phenoxybenzyl)octahydropyrrolo[3,4-c]pyrrole-2-carbonyl)-1H-pyrazol-4-yl)acetamide]
